Measured values: article PMC5372361 (Scientific Reports, 2017)
Read-outs that look alike come from different tables or passages of the source.

How the values were obtained:
[1] = biological target: T1, ifenprodil binding site of NMDA receptors containing NR2B subunits (Rattus norvegicus, UniProt P35439+Q00960); experiment: Radioligand binding, competition with [3H]ifenprodil; settings: rat hippocampal membranes
T1 construct: we used a membrane preparation of rat cerebral hippocampus; from tissue; host or cells: rat hippocampal membranes
Description: (§1) Two radioactive ligands were used: [^3H]
(§2) The obtained membrane pellet was resuspended in a work buffer (5 mM HEPES/4.5 mM Tris buffer, pH 7.6) in a ratio of 1:5 and stored in liquid nitrogen. The reaction mixture (the final volume of 0.5 ml) contained 200 μl of the working buffer, 50 μl of 50 nM radioligand solution, and 250 μl of the membrane suspension. Nonspecific binding was determined in the presence of 50 μl of 1 mM of unlabeled ligand.
(§3) For binding study, the reaction mixture was incubated at room temperature for 2 hours. After incubation, the samples were filtered through GF/B glass-fiber filters (Whatman), washed with the work buffer, dried, and transferred to scintillation vials to which 5 ml of scintillation fluid was added containing 4 g of diphenyloxazole (PPO), 0.2 g of diphenyloxazoil benzene (POPOP), and 1 liter of toluene.
(§4) The effect of the test compounds on the binding of [^3H]

[2] = biological target: T2, tubulin (Sus scrofa, UniProt P02550+P02554); experiment: Tubulin polymerization to microtubules (absorbance at 355 nm); type: biochemical; settings: read-out: (dA355/dt)max, % of control
T2 construct: purchased Cytoskeleton, Inc., Denver, USA
Description: The primary screening for the effect on tubulin polymerization in vitro was performed using a commercial tubulin in the presence of 0.1 mM of the carbazole–aminoadamantane conjugates. In blank probes, tubulin (40 μM) polymerization in the presence of 10% DMSO (as in the case of test probes) leads to absorbance increase after a rather long (80–120 minutes) lag period. […] The results are summarized in Table 3 as the maximum rate of absorbance increase for a tubulin- microtubules suspension normalized to the blank value.
The assembly of tubulin into microtubules was carried out using pure tubulin from HTS- Tubulin polymerization assay kit (Cytoskeleton, Inc., Denver, USA). […] The standard polymerization reaction contained 100 μl of a 4 mg/ml tubulin solution in 80 mM PIPES (pH 6.9), 0.5 mM EGTA, 2 mM MgCl2, and 1 mM GTP. […] The parameter Vmax = (dA355/dt)^max normalized to control probes (%) was used to compare the action of the compounds. Electron microscopic monitoring was carried out on Carl Zeiss Libra 120 Electron Microscope (Carl Zeiss Meditec AG, Jena, Germany) at 120 kV using negative countstaining.

[3] = biological target: T3, porcine liver CaE (Sus scrofa, UniProt Q29550); experiment: In vitro CaE inhibition (4-nitrophenyl acetate hydrolysis); type: biochemical; settings: for inhibition at 20 µM: 20 μM of compound
T3 sequence (Q29550 19-566): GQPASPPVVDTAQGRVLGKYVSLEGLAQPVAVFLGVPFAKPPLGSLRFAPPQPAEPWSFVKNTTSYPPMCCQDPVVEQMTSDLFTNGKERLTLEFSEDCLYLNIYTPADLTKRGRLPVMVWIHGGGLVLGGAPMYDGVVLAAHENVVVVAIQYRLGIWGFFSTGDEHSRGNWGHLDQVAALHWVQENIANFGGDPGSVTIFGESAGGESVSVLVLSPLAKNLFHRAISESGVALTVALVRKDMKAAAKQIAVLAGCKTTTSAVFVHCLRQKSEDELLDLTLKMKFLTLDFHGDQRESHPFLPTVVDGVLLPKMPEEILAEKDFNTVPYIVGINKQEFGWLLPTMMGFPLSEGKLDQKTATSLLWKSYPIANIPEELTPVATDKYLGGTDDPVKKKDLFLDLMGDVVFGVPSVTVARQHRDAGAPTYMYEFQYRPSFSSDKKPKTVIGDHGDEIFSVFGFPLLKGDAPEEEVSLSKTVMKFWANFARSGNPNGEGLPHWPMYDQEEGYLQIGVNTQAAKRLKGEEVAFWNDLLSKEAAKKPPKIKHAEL
Description: Acetylcholinesterase (AChE, EC 3.1.1.7, from human erythrocyte), butyrylcholinesterase (BChE, EC 3.1.1.8, from equine serum), carboxylesterase (CaE, EC 3.1.1.1, from porcine liver), acetylthiocholine iodide (ATCh), butylthiocholine iodide (BTCh), 5,5′-dithiobis-(2-nitrobenzoic acid) (DTNB), and 4-nitrophenol acetate (4-NPA), were purchased from Sigma-Aldrich (Germany).
The activity of CaE was determined spectrophotometrically by the release of 4-nitrophenol at 405 nm[76]. The assay solution consisted of 0.1 M K/Na phosphate buffer (pH 8.0, 25 °C) with the addition of 1 mM 4-nitrophenyl acetate and 0.02 unit/mL of CaE. The assays were carried out with a blank containing all components except CaE.
The test compounds were dissolved in DMSO; the incubation mixture contained 2% of the solvent. […] The test compounds were added to the assay solution and pre-incubated at 25 °C with the enzymes for 10 min followed by the addition of the substrate. A parallel control was made for the assay solution with no inhibitor. […] Each experiment was performed in triplicate. The results were expressed as the mean ± SEM. The reaction rates in the presence and absence of inhibitor were compared, and the percentage of residual enzyme activity due to the presence of test compounds was calculated.

[4] = biological target: T4, equine serum BChE (Equus caballus, UniProt P81908); experiment: biochemical; settings: for inhibition at 20 µM: read-out: inhibition % at 20 μM, BChE
T4 construct: We used human erythrocyte AChE, equine serum BChE, and porcine liver CaE; purchased Sigma-Aldrich (Germany); host or cells: equine serum
Description: (§5) The AChE and BChE activities were measured by the method of Ellman and co-workers as described earlier[75]. The assay solution consisted of 0.1 M K/Na phosphate buffer (pH 7.5, 25 °C) with the addition of 0.33 mM DTNB, 0.02 unit/mL of AChE or BChE, and 1 mM of substrate (ATCh or BTCh, respectively). The assays were carried out with a blank containing all components except ATCh and BTCh in order to take account of a non-enzymatic reaction.
(§6) The test compounds were dissolved in DMSO; the incubation mixture contained 2% of the solvent. […] The test compounds were added to the assay solution and pre-incubated at 25 °C with the enzymes for 10 min followed by the addition of the substrate. A parallel control was made for the assay solution with no inhibitor. Measurements were performed in a FLUOStar OPTIMA multifunctional reader (BMG Labtech, Germany). Each experiment was performed in triplicate. The results were expressed as the mean ± SEM. The reaction rates in the presence and absence of inhibitor were compared, and the percentage of residual enzyme activity due to the presence of test compounds was calculated.

[5] = biological target: T5, MK-801 binding (intrachannel) site of NMDA receptor (Rattus norvegicus, UniProt P35439); experiment: Radioligand binding, competition with [3H]MK-801; settings: rat hippocampal membranes
T5 construct: we used a membrane preparation of rat cerebral hippocampus; from tissue; host or cells: rat hippocampal membranes
Description: as §1, §2, §3, §4

[6] = biological target: T6, human erythrocyte AChE (Homo sapiens, UniProt P22303); experiment: biochemical; settings: for inhibition at 20 µM: read-out: inhibition % at 20 μM, AChE
T6 construct: We used human erythrocyte AChE, equine serum BChE, and porcine liver CaE; purchased Sigma-Aldrich (Germany); host or cells: human erythrocyte
Description: as §5, §6

[7] = test system: SH-SY5Y neuroblastoma cells; experiment: Ionomycin-induced toxicity in SH-SY5Y neuroblastoma cells (MTT test); type: cell-based, human; settings: 3 μM ionomycin, 24 hours
Description: The human neuroblastoma cell line SH-SY5Y was used for all experiments. The cells were cultured in a humidified, 5% (v/v) CO2-controlled environment at 37 °C, and grown in MEM/F12 culture medium supplemented with 15% fetal bovine serum (FBS), 100 U/mL penicillin, and […][90].
The cell viability was evaluated as the dehydrogenase activity with the 3-(4,5-dimethylthiazol-2-yl)-2,5-diphenyltetrazolium bromide (MTT) assay. Briefly, the SH-SY5Y cells were incubated with 0.1 and 1 μM of a test compound or an equal volume of the vehicle (<1% of the whole volume of the medium under the layer of cells) and 3 μM ionomycine for 24 h. The absorbance was measured at 570 nm using a Victor microplate reader (Perkin Elmer).

[8] = equine serum BChE, pH 7.5, 25 °C, 10 min pre-incubation, read-out: IC50 ± SEM, BChE

T6 sequence (P22303 32-617 isoform P22303-2 limits assumed): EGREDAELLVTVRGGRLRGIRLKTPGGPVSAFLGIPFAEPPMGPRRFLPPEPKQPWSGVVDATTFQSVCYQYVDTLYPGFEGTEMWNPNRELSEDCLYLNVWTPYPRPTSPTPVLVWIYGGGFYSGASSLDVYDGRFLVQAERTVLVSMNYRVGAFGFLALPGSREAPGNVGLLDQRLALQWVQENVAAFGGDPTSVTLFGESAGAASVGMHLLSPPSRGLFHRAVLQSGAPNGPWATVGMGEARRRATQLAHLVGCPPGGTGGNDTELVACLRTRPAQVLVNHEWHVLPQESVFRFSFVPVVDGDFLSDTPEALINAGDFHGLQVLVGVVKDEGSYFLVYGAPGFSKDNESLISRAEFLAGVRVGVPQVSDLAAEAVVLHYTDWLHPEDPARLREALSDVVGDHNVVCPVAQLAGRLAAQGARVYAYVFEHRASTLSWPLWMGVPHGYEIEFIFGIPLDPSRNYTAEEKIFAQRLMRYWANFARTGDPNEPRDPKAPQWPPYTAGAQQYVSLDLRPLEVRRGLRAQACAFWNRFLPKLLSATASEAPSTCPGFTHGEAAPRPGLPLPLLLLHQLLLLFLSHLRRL
T2 sequence (P02550 whole entry): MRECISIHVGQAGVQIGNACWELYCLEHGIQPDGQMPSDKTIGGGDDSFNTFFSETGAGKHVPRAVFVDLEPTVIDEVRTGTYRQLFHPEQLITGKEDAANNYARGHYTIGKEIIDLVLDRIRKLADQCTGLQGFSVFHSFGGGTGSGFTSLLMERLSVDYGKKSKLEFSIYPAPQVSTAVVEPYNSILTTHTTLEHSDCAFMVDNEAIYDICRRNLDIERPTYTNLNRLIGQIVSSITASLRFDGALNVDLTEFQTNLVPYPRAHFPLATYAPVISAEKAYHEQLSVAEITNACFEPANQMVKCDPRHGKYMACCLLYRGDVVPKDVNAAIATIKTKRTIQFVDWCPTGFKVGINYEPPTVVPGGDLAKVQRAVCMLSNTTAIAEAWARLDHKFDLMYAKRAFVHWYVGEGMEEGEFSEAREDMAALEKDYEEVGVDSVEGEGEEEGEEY
T2 sequence (P02554 whole entry): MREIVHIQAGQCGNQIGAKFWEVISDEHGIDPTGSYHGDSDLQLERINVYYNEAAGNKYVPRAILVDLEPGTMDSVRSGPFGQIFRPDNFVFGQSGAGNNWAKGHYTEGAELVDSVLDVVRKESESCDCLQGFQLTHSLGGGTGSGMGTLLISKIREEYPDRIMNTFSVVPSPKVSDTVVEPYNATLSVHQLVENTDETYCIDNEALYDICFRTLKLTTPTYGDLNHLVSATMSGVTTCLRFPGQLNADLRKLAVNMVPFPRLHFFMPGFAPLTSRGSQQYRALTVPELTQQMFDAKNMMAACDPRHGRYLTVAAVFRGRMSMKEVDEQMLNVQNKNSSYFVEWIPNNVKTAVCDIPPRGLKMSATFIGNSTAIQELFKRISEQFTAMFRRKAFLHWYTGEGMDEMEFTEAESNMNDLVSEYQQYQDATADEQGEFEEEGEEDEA
T4 sequence (P81908 whole entry): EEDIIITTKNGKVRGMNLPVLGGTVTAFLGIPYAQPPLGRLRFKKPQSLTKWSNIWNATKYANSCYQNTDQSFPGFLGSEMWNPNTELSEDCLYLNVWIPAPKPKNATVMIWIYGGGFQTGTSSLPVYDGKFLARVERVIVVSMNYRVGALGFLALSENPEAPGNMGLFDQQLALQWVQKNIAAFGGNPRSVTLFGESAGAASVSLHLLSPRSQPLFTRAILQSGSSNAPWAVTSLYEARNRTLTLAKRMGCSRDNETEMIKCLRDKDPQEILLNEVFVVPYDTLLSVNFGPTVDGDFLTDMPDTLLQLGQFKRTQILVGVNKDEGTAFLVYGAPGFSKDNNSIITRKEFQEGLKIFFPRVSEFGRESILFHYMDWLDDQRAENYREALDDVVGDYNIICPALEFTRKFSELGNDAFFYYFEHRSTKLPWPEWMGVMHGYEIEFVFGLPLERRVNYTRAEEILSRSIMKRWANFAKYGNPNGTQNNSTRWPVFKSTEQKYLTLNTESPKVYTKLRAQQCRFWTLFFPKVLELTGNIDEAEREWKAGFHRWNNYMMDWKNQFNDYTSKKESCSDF
T1 sequence (Q00960 27-1482, other chains not shown): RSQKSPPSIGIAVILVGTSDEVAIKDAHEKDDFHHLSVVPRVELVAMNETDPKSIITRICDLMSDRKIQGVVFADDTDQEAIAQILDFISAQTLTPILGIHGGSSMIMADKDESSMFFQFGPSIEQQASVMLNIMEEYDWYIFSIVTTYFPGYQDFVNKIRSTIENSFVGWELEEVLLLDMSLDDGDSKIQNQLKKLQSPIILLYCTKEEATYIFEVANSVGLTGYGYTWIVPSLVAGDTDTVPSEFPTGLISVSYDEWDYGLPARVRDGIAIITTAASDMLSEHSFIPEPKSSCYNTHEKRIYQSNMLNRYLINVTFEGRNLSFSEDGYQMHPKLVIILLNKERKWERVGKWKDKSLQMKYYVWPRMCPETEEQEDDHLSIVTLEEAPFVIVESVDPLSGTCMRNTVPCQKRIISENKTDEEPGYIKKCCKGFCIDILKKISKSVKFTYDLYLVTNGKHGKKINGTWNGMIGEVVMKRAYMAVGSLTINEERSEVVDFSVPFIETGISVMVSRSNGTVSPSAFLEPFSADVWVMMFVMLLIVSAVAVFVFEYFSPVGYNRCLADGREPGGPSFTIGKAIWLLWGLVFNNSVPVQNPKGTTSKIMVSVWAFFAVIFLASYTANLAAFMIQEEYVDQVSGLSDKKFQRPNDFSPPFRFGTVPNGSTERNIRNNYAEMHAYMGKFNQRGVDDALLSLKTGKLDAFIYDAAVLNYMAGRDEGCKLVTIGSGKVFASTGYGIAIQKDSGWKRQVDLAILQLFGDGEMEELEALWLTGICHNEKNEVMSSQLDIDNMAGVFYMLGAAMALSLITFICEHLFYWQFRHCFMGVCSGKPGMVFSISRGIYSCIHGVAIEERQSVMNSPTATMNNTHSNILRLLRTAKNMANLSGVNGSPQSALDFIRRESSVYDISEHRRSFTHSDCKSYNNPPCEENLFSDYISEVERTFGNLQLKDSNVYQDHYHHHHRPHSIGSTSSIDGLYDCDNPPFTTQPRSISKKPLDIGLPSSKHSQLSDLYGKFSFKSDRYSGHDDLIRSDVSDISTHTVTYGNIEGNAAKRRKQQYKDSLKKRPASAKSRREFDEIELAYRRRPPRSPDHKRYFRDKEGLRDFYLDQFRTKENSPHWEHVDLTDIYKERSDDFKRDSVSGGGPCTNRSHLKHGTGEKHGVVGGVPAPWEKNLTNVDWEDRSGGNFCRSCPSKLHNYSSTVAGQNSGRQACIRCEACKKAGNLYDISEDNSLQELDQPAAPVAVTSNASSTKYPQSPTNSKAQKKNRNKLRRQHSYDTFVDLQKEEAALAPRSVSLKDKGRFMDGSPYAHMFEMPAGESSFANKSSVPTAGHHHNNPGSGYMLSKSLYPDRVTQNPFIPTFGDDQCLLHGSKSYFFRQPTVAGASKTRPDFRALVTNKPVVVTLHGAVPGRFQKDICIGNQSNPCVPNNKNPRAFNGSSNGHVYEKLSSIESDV

SMILES	% of [3H]ifenprodil blockade at 100 μM of compound [1]	inhibition at 20 µM [3]	IC50 [4, 8]	% of [3H]МК-801 blockade at 100 μM of compound [5]	maximum polymerization rate, % of control at 100 µM [2]	inhibition at 20 µM [6]	inhibition at 20 µM [4]	also measured
NC12CC3CC(CC(C3)C1)C2 [Amantadine]	44.6 ± 4.6%	3.2%	> 20 µM	57.2 ± 5.5%				remaining activity at 100 µM ([2]; at 100 μM of compound, 100% = vehicle control (10% DMSO)): 98 ± 16%; inhibition at 20 µM ([4]; 20 μM of compound): 6.9%
O=[N+]([O-])c1ccc(OP(=O)(O)Oc2ccc([N+](=O)[O-])cc2)cc1 [BNPP, Bis-4-nitrophenyl phosphate]								IC50 ([3]; porcine liver CaE, pH 8.0, 25 °C, read-out: IC50 ± SEM, CaE): 1.8 ± 0.11 µM
c1ccc2c(c1)[nH]c1ccccc12 [Carbazole]		9.4%			123 ± 12%	1.8%	16.1%	IC50 [6]: > 20 µM; IC50 [4]: > 20 µM
CC12CC3CC(C)(C1)CC(N)(C3)C2.Cl [Memantine, 1-amino-3,5-dimethyladamantane hydrochloride]	11.2 ± 1.1%	3%	> 20 µM	100%	89 ± 7%	1.3%	13.7%	IC50 ([6]; read-out: IC50 ± SEM, AChE): > 20 µM
CC(=O)O[C@H]1C(=O)[C@@]2(C)[C@H]([C@H](OC(=O)c3ccccc3)[C@]3(O)C[C@H](OC(=O)[C@H](O)[C@@H](NC(=O)c4ccccc4)c4ccccc4)C(C)=C1C3(C)C)[C@]1(OC(C)=O)CO[C@@H]1C[C@@H]2O [Paclitaxel]								remaining activity at 5 µM ([2]; 5 μM, 100% = vehicle control (10% DMSO)): 487 ± 32%
C[C@H](CCC(=O)O)C[C@H](C)C[C@H](C)C(=O)/C=C(\O)[C@H](C)C[C@H](C)C/C=C/[C@@H](C)[C@@H](O)[C@@H](C)[C@@H](O)C[C@@H]1CC[C@@](C)([C@H]2CC[C@@](C)([C@@H](C)O)O2)O1 [ionomycin]								reduction of neuroblastoma cell survival [7]: 36 ± 4%
